Laboratory results from patent US12545637B2, “Extrahepatic targeted cationic lipid compound with high efficiency and low toxicity and its composition” (BEIJING YOUCARE KECHUANG PHARMACEUTICAL TECHNOLOGY CO., LTD., priority 2023, dated 2026).

What was measured:
293T cells [1] = test: Cell survival rate assay (CCK-8); format: cell-based; conditions: LNP with 1.5 μg Fluc-mRNA, 24 hours, CCK-8
Description: Cell recovery and passage: 293T cells were recovered, cultured in a culture dish, and passaged to the required number of cells.
(§1) Seeding plate: The cells in the culture dish were digested and counted. Cells were spread in a 96-well plate at 10,000 cells per well and in a 12-well plate at 150,000 cells per well. Cells were cultured overnight until the cells adhered to the wall.
An LNP formulation containing 1.5 μg of Fluc-mRNA (prepared according to example 4, the carrier components of the LNP formulation were cationic lipid, neutral lipid, structured lipid and polymer-conjugated lipid at a molar ratio of 49:10:39.5:1.5, wherein the cationic lipid was listed in Table 1) and the formulation of Lipofectamine 3000 were added to the cell culture medium of a 96-well plate, and further cultivated for 24 hours. 10 μL of CCK-8 solution was then added to each well, and the culture plate was incubated in an incubator for 1 hour. The absorbance at 450 nm was measured by a microplate reader.

female BALB/C mice = test: In vivo imaging in mice of Fluc-mRNA LNP formulations (mRNA expression and duration); conditions: Fluc-mRNA LNP intramuscular; for average radiation intensity, 6 h: 6 h after administration; for average radiation intensity, 24 h: 24 h after administration; for average radiation intensity, 48 h: 48 h after administration; for average radiation intensity, 7 d: 7 d after administration
Description: The LNP formulation (prepared according to Example 4) containing […] Fluc-mRNA was injected intramuscularly into female BALB/C mice aged 4-6 weeks and weighed 17-19 g, and the mice were intraperitoneally injected with fluorescent imaging substrate at specific time points after administration (6h, 24 h, 48h and 7d), where the mice were allowed to free move for 5 minutes, and then the average radiation intensity (corresponding to fluorescence expression intensity) of the protein expression of the mRNA carried by the LNP in the mice was detected by the IVIS Spectrum small animal in vivo imaging system.

[2] = Detection of encapsulation efficiency, drug loading concentration and total RNA concentration (RiboGreen); format: physicochemical; conditions: LNP formulation prepared from the cationic lipid
Excerpt: Encapsulation efficiency is a key quality attribute of liposomes, which refers to the percentage of drug content encapsulated in the lipid bimolecular layer accounting for the total drug dose and can reflect the degree of drug encapsulation in liposomes. The Chinese Pharmacopoeia stipulates that the encapsulation efficiency should generally not be less than 80%.
The drug loading amount is the ratio of the amount of drug in the liposome to the total amount of drug and carrier in the liposome. The drug loading amount directly affects the clinical application dose of the drug. […] The drug loading concentration is proportional to the drug loading amount, and the relative proportion of the drug loading concentrations can represent the relative proportion of the drug loading amounts. The relative ratio of the total RNA concentrations may represent the relative ratio of the amounts of mRNA carried by the LNP formulations.
1×TE buffer, 0.1% Triton X-100 buffer, RiboGreen reagent (1: 200) and mRNA standard stock solution were prepared.
An appropriate amount of the sample was added to an appropriate amount of 1×TE buffer, and the mixture was diluted to obtain a solution containing approximately […] sample per 1 mL. Then the sample was added to a 96-well plate, and 50 μL of the diluted test sample or the mRNA standard stock solution was added to each well, then 1×TE buffer and 0.1% Triton X-100 buffer were added. The sample was incubated at 37° C. for 10 minutes, and 100 μL RiboGreen reagent (1:200) was added to each well of the test sample in the 96-well plate. The sample was centrifugated, and the data were read using a microplate reader, and processed.

[3] = Particle size and polydispersity index (PDI) of lipid nanoparticles by dynamic light scattering; format: physicochemical; conditions: for PDI: LNP formulation of the cationic lipid, 25° C.; for Particle size: LNP formulation of the cationic lipid/DSPC/cholesterol/DMG-PEG2000 49:10:39.5:1.5, 25° C.
Description: The particle size and polydispersity index (PDI) were determined by dynamic light scattering using Malvern laser particle size analyzer.
10 μL of the liposome solution was weighed, diluted to 1 mL with RNase-free deionized water, and added to the sample pool. Each sample was measured in triplicate. The measurement conditions were: […] scattering angle, and 25° C.

293T cells [4] = test: Fluorescent detection of Fluc-mRNA (cell transfection efficiency of LNP formulations); format: cell-based; conditions: for Relative light unit (RLU): LNP with 0.3 μg Fluc-mRNA, 96-well plate, 24 hours
Description: as §1
The corresponding reagents were added according to the instructions of the Gaussia Luciferase Assay Kit, and the fluorescence expression intensity of each well was detected by an IVIS fluorescence detection system.

Row | Drug loading concentration [2] [µg/mL] | Encapsulation efficiency [2] [%] | Total RNA concentration [2] [µg/mL] | PDI [3] [%] | Particle size [3] [nm] | SMILES | Cell survival rate (293T cells [1]) [%] | average radiation intensity, 6 h (female BALB/C mice) | average radiation intensity, 24 h (female BALB/C mice) | average radiation intensity, 48 h (female BALB/C mice) | average radiation intensity, 7 d (female BALB/C mice) | Relative light unit (RLU) (293T cells [4]) | cell transfection efficiency, times that of YK-417 (293T cells [4]; ratio vs YK-417)
1 | 31.08 | 87.8 | 35.39 | 15.6 | 178 | CCCCCCCCCCCOC(=O)CCCN(CCO)CCCN(CCO)CCCCCC(=O)OCC(CCCCCCCC)CCCCCCCC [YK-415, 2-octyldecyl 6-((2-hydroxyethyl)(3-((2-hydroxyethyl)(4-oxo-4-(undecyloxy)butyl)amino)propyl)amino)hexanoate] | 61.16 | 117840 | 64501 | 15790 | 4041 | 298021 | 
2 | 30.19 | 87.8 | 34.41 | 15.8 | 154 | CCCCCCCCCCCOC(=O)CCCN(CCO)CCN(CCO)CCCCCCOC(=O)CC(CCCCCC)CCCCCC [YK-406, 6-((2-hydroxyethyl) (2-((2-hydroxyethyl)(4-(undecyloxy)-4-oxobutyl)amino)ethyl)amino)hexyl 3-hexylnonanoate] | 24.96 |  |  |  |  | 78251 | 
3 | 33.93 | 83.1 | 40.83 | 17.4 | 148 | CCCCCCCCCCOC(=O)CCCN(CCO)CCCCN(CCO)CCCCCC(=O)OC(CCCCCCCC)CCCCCCCC [YK-421, heptadecan-9-yl 6-((4-((4-(decyloxy)-4-oxobutyl)(2-hydroxyethyl)amino)butyl)(2-hydroxyethyl)amino)hexanoate] | 35.71 |  |  |  |  | 466616 | 
4 | 34.14 | 86.9 | 39.27 | 13.7 | 155 | CCCCCCCCCCCOC(=O)CCCN(CCO)CCN(CCO)CCCCCC(=O)OCC(CCCCCCCC)CCCCCCCC [YK-409, 2-octyldecyl 6-((2-hydroxyethyl)(2-((2-hydroxyethyl)(4-(undecyloxy)-4-oxobutyl)amino)ethyl)amino) hexanoate] | 46.11 |  |  |  |  | 669807 | 
5 | 25.16 | 79.6 | 31.62 | 19.7 | 190 | CCCCCCCCCCOC(=O)CCCCCN(CCO)CCCN(CCO)CCCCCC(=O)OCC(CCCCCCCC)CCCCCCCC [YK-416, decyl 6-((2-hydroxyethyl)(3-((2-hydroxyethyl)(6-((2-octyldecyl)oxy)-6-oxohexyl)amino)propyl)amino)hexanoate] | 40.97 |  |  |  |  | 3975264 | 34
6 | 45.42 | 86.6 | 52.46 | 16.2 | 136 | CCCCCCCCCCOC(=O)CCCN(CCO)CCN(CCO)CCCC(=O)OC(CCCCCCCC)CCCCCCCC [YK-408, heptadecan-9-yl 4-((2-hydroxyethyl)(2-((2-hydroxyethyl)(4-(decyloxy)-4-oxobutyl)amino)ethyl)amino)butyrate] | 42.31 |  |  |  |  | 1474136 | 
7 | 28.45 | 75.3 | 33.41 | 4.2 | 142 | CCCCCC(CC)OC(=O)CCCCCCCCN(CCO)CCN(CCO)CCCCCCCCC(=O)OC(CC)CCCCC (stereo not shown) [YK-404, di(octan-3-yl) 9, 9′-(ethane-1,2-diyl-bis((2-hydroxyethyl)azanediyl))dinonanoate] | 42.12 |  |  |  |  | 7543 | 
8 | 29.48 | 88.2 | 33.42 | 15.5 | 163 | CCCCCCCCCCOC(=O)CCCCCN(CCO)CCN(CCO)CCCCCC(=O)OCC(CCCCCCCC)CCCCCCCC [YK-410, 2-octyldecyl 6-((2-hydroxyethyl)(2-((2-hydroxyethyl)(6-(decyloxy)-6-oxohexyl)amino)ethyl)amino)hexanoate] | 44.92 |  |  |  |  | 407868 | 
9 | 25.02 | 74.8 | 33.46 | 17.7 | 128 | CCCCCCCCCCOC(=O)CCCCCN(CCO)CCCN(CCO)CCCCCC(=O)OCCC(CCCCCC)CCCCCC [YK-417] | 21.34 | 60480 | 19987 | 7045 | 2284 | 117287 | 
10 | 33.42 | 83.2 | 40.19 | 4.3 | 141 | CCCCCCCCCCOC(=O)CCCN(CCO)CCN(CCO)CCCCCC(=O)OC(CCCCCCCC)CCCCCCCC [YK-405, Heptadecan-9-yl 6-((2-hydroxyethyl)(2-((2-hydroxyethyl)(4-(decyloxy)-4-oxobutyl)amino)ethyl)amino)hexanoate] | 41.86 |  |  |  |  | 3197780 | 
11 | 35.87 | 94.9 | 37.81 | 14.2 | 169 | CCCCCCCCC(CCCCCCCC)OC(=O)CCCCCN(CCO)CCCCN(CCO)CCCCCC(=O)OC(CCCCCCCC)CCCCCCCC [YK-420, di(heptadecan-9-yl) 6,6′-(butane-1,4-diylbis((2-hydroxyethyl)azanediyl))dihexanoate] | 35.59 |  |  |  |  | 4019330 | 
12 | 23.63 | 83.3 | 28.36 | 16.1 | 160 | CCCCCCCCCCCOC(=O)CCCN(CCO)CCCN(CCO)CCCCCC(=O)OC(CCCCCCCC)CCCCCCCC [YK-413, heptadecan-9-yl 6-((2-hydroxyethyl)(3-((2-hydroxyethyl)(4-oxo-4-(undecyloxy)butyl)amino)propyl)amino)hexanoate] | 47.20 |  |  |  |  | 1377048 | 
13 |  |  |  |  |  | CCCCCCCCCCOC(=O)CCCN(CCO)CCCN(CCO)CCCC(=O)OC(CCCCCCCC)CCCCCCCC [YK-414, decyl 4-(3-((4-(heptadecan-9-yloxy)-4-oxobutyl)(2-hydroxyethyl)amino)propyl)(2-hydroxyethyl)aminobutyrate] | 28.75 |  |  |  |  | 444089 | 
14 |  |  |  |  |  | CCCCCCCCC(CCCCCCCC)C(=O)OCCCCCCN(CCO)CCCN(CCO)CCCCCCOC(=O)C(CCCCCCCC)CCCCCCCC [YK-412, (propane-1,3-diyl-bis((2-hydroxyethyl)azanediyl))-bis(hexane-6,1-diyl)bis(2-octyldecanoate)] | 54.14 |  |  |  |  | 3371352 | 
